Among the data in BindingDB's records for patent US9090621 (Principia Biopharma, 2015) are IC50 values, retold here.

Molecules are shown by their SMILES. pIC50: −log10 of the molar value.

This assay has as its target Tyrosine-protein kinase BTK (Homo sapiens, UniProt Q06187). Kind of assay: Enzymatic Activity Assay. Conditions: 25 °C.

Sequence of Tyrosine-protein kinase BTK (Q06187 whole entry): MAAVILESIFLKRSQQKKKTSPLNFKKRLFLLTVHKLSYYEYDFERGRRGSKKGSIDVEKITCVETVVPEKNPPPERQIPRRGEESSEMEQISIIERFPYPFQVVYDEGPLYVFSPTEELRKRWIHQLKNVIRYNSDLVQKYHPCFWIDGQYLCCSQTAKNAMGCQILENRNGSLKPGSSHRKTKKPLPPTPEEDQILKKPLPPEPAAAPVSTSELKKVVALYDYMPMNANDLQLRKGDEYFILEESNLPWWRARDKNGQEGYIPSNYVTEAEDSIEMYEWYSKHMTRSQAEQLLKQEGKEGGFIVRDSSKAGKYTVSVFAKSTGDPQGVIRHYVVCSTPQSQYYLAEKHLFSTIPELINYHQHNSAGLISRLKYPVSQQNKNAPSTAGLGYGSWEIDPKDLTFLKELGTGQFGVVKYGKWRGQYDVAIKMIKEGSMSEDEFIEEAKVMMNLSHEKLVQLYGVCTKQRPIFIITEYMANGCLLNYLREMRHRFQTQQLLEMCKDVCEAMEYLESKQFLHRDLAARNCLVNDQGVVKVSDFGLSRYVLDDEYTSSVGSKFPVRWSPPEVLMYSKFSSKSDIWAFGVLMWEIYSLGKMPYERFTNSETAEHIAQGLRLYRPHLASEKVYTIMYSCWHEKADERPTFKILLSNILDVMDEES
Experimental: A Caliper-based kinase assay (Caliper Life Sciences, Hopkinton, Mass.) was used to measure inhibition of Btk kinase activity of a compound of Formula (IA), (I′) or (I). […] The reaction was then terminated with EDTA, final concentration 20 mM and the phosphorylated reaction product was quantified on a Caliper Desktop Profiler (Caliper LabChip 3000).

By pIC50 is commonly meant the negative decadic logarithm of the IC50, by convention in mol/L. A lower pIC50 goes with a high IC50. In turn, `COc1cc(-c2nn(C3CCCN(C(=O)C(C#N)=CC4CC4)C3)c3ncnc(N)c23)ccc1Oc1ccc(Cl)c(Cl)c1` (stereo unspecified) [US9090621, 5] showed a pIC50 of 9.00.
